Laboratory results from US20120178766A1, “FUROPYRIMIDINEDIONE DERIVATIVES AS TRPAI MODULATORS” (priority 2009, published 2012).

What was measured:
human TRPA1 = target: T1, human TRPA1 (Homo sapiens, UniProt O75762); test: 45Calcium uptake assay: inhibition of AITC induced cellular uptake of radioactive calcium, human TRPA1 expressing CHO cells; type: cell-based; conditions: AITC 30 μM; for inhibition at 1 µM: 1.0 μM compound, read-out: human TRPA1 Percentage inhibition at 1.0 μM; for inhibition at 10 µM: 10.0 μM compound, read-out: human TRPA1 Percentage inhibition at 10.0 μM; for IC50: class symbols
T1 construct: expressed in transfected cells; host or cells: CHO cells (G-418 selection)
T1 sequence (O75762 whole entry): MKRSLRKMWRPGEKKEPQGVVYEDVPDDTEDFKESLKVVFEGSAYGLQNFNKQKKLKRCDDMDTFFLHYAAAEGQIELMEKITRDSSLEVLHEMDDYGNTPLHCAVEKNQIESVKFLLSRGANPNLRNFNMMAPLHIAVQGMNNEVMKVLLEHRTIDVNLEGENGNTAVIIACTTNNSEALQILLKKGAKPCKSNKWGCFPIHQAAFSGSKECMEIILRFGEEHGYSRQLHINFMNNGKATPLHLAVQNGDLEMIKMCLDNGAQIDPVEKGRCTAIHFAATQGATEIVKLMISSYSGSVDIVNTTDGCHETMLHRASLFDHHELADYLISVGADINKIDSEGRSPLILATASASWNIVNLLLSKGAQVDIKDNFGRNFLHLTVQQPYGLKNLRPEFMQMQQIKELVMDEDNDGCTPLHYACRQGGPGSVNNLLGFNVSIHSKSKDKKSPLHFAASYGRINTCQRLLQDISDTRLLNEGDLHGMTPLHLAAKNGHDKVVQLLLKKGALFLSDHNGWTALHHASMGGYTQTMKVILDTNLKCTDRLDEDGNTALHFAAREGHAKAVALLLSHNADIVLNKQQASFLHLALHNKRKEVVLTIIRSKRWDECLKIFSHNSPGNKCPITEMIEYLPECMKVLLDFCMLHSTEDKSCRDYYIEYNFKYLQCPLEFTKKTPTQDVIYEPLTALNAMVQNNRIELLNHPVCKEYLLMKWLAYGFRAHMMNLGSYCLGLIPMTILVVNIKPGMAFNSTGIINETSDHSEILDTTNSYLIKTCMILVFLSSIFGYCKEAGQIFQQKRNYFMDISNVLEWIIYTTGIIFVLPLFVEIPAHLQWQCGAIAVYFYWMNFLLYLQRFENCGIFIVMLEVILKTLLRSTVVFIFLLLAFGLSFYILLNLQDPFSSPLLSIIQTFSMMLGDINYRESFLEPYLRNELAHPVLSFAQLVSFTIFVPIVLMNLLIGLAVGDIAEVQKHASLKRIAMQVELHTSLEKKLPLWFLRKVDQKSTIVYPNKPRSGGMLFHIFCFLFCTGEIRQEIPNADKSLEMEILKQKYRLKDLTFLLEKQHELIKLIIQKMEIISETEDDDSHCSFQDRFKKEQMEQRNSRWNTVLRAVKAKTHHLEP
Text: The illustrative examples of the present invention are screened for TRPA1 activity according to a modified procedure described in (a) Tóth, A. et al. Life Sciences, 2003, 73, 487-498. (b) McNamara C, R. et al, Proc. Natl. Acad. Sci. U.S.A., 2007, 104, 13525-13530. The screening of the compounds can be carried out by other methods and procedures known to persons skilled in the art.
(§1) Screening for TRPA1 Antagonist Using the ^45Calcium Uptake Assay:
(§2) The inhibition of TRPA1 receptor activation was measured as inhibition of allyl isothiocyanate (AITC) induced cellular uptake of radioactive calcium.
Test compounds were dissolved in 100% DMSO to prepare 10 mM stock and then diluted using plain medium with 0.1% BSA and 1.8 mM CaCl2 to get the desired concentration. The final concentration of DMSO in the reaction was 0.5% (v/v). Human TRPA1 expressing CHO cells were grown in F-12 DMEM medium with 10% FBS, 1% penicillin-streptomycin solution, and 400 μg/ml of G-418. Rat TRPA1 expressing CHO cells were grown in F-12 DMEM medium with 10% FBS, 1% penicillin-streptomycin solution, and 400 μg/ml of Zeocin. Cells were seeded 24 h prior to the assay in 96 well plates so as to get ˜50,000 cells per well on the day of experiment. Cells were treated with the test compounds for 10 minutes followed by the addition of AITC at a final concentration of 30 μM (for human TRPA1) and/or 10 μM (for rat TRPA1) and 5 μCi/ml ^45Ca^+2 for 3 minutes. Cells were washed and lysed using a buffer containing 1% Triton X-100, 0.1% deoxycholate and 0.1% SDS. Radioactivity in the lysate was measured in a Packard TopCount after addition of liquid scintillant. (Toth et al, Life Sciences (2003) 73, 487-498; McNamara C R et al, Proceedings of the National Academy of Sciences, (2007) 104, 13525-13530).
(§3) Concentration response curves were plotted as a % of maximal response obtained in the absence of test antagonist. IC50 values can be calculated from concentration response curve by nonlinear regression analysis using GraphPad PRISM software.

rat TRPA1 = target: T2, rat TRPA1 (Rattus norvegicus, UniProt Q6RI86); test: 45Calcium uptake assay: inhibition of AITC induced cellular uptake of radioactive calcium, rat TRPA1 expressing CHO cells; type: cell-based; conditions: AITC 10 μM; for inhibition at 10 µM: 10.0 μM compound, read-out: rat TRPA1 Percentage inhibition at 10.0 μM; for inhibition at 1 µM: read-out: rat TRPA1 Percentage inhibition; for IC50: class symbols
T2 construct: expressed in transfected cells; host or cells: CHO cells (Zeocin selection)
T2 sequence (Q6RI86 whole entry): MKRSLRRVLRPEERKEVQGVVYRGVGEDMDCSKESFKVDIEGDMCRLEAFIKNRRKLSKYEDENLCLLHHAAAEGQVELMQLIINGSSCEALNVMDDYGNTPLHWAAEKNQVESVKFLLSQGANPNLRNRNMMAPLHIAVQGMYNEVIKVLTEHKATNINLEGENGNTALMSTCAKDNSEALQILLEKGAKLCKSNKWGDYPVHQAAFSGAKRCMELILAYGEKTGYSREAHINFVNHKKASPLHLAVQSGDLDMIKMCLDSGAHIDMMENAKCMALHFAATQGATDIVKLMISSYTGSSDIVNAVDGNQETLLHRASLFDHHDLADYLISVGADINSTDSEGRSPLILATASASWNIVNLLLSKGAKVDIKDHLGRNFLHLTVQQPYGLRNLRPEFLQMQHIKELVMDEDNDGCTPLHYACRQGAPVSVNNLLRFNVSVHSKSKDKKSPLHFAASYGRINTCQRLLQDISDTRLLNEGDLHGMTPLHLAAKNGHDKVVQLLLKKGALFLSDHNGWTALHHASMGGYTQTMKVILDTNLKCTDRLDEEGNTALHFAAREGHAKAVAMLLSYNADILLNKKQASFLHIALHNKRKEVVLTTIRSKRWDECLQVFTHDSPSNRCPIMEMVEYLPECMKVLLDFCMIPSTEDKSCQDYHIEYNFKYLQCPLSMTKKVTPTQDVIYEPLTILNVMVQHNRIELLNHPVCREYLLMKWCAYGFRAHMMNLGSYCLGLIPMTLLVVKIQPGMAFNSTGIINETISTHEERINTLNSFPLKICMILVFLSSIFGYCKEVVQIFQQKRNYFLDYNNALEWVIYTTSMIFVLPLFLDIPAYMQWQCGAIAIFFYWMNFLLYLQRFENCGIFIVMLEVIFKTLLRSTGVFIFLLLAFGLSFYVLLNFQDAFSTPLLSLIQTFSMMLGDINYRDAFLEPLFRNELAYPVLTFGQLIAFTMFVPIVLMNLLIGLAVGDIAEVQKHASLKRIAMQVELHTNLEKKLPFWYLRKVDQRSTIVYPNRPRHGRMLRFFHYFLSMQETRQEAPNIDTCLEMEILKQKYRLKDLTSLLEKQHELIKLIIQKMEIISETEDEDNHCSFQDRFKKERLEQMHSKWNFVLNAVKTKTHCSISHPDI
Method: as §1, §2
Test compounds were dissolved in 100% DMSO to prepare 10 mM stock and then diluted using plain medium with 0.1% BSA and 1.8 mM CaCl2 to get the desired concentration. The final concentration of DMSO in the reaction was 0.5% (v/v). […] Rat TRPA1 expressing CHO cells were grown in F-12 DMEM medium with 10% FBS, 1% penicillin-streptomycin solution, and 400 μg/ml of Zeocin. […] Cells were treated with the test compounds for 10 minutes followed by the addition of AITC at a final concentration of 30 μM (for human TRPA1) and/or 10 μM (for rat TRPA1) and 5 μCi/ml ^45Ca^+2 for 3 minutes. Cells were washed and lysed using a buffer containing 1% Triton X-100, 0.1% deoxycholate and 0.1% SDS. Radioactivity in the lysate was measured in a Packard TopCount after addition of liquid scintillant.
as §3

Compound | inhibition at 1 µM (human TRPA1) | inhibition at 10 µM (human TRPA1) | IC50 (human TRPA1) | inhibition at 10 µM (rat TRPA1) | inhibition at 1 µM (rat TRPA1) | IC50 (rat TRPA1)
Cn1c(=O)c2c(CC(=O)Nc3nc(-c4ccc(C(F)(F)F)c(F)c4)cs3)coc2n(C)c1=O [Example 14, N1-{4-[3-Fluoro-4-(trifluoromethyl)phenyl]-1,3-thiazol-2-yl}-2-(1,3-dimethyl-2,4-dioxo-1,2,3,4-tetrahydrofuro[2,3-d]pyrimidin-5-yl)acetamide] | 99.4% | 99.7% | < 50 nM | 100% | 100% | < 50 nM
Cn1c(=O)c2c(CC(=O)Nc3nc(-c4ccc(F)c(C(F)(F)F)c4)cs3)coc2n(C)c1=O [Example 15, N1-{4-[4-Fluoro-3-(trifluoromethyl)phenyl]-1,3-thiazol-2-yl}-2-(1,3-dimethyl-2,4-dioxo-1,2,3,4-tetrahydrofuro[2,3-d]pyrimidin-5-yl)acetamide] | 99.9% | 99.8% | < 50 nM | 99% | 100% | < 50 nM
Cn1c(=O)c2c(CC(=O)Nc3nc(-c4ccc(F)c(OC(F)(F)F)c4)cs3)coc2n(C)c1=O [Example 16, N1-{4-[4-Fluoro-3-(trifluoromethoxy)phenyl]-1,3-thiazol-2-yl}-2-(1,3-dimethyl-2,4-dioxo-1,2,3,4-tetrahydrofuro[2,3-d]pyrimidin-5-yl)acetamide] | 98.5% | 99.2% | < 50 nM | 98.6% | 100% | < 50 nM
Cn1c(=O)c2c(CC(=O)Nc3nc(-c4ccc(OC(F)(F)F)c(F)c4)cs3)coc2n(C)c1=O [Example 17, N1-{4-[3-Fluoro-4-(trifluoromethoxy)phenyl]-1,3-thiazol-2-yl}-2-(1,3-dimethyl-2,4-dioxo-1,2,3,4-tetrahydrofuro[2,3-d]pyrimidin-5-yl)acetamide] | 99.9% | 100% | < 50 nM | 99.8% | 97.7% | 50 to 100 nM
Cn1c(=O)c2c(CC(=O)Nc3nc(-c4ccc(Cl)c(C(F)(F)F)c4)cs3)coc2n(C)c1=O [Example 18, N1-{4-[4-Chloro-3-(trifluoromethyl)phenyl]-1,3-thiazol-2-yl}-2-(1,3-dimethyl-2,4-dioxo-1,2,3,4-tetrahydrofuro[2,3-d]pyrimidin-5-yl)acetamide] | 99.9% | 100% | < 50 nM | 94.1% | 99.9% | 50 to 100 nM
Cn1c(=O)c2c(CC(=O)Nc3nc(-c4ccc(Cl)c(OC(F)(F)F)c4)cs3)coc2n(C)c1=O [Example 19, N1-{4-[4-Chloro-3-(trifluoromethoxy)phenyl]-1,3-thiazol-2-yl]-2-(1,3-dimethyl-2,4-dioxo-1,2,3,4-tetrahydrofuro[2,3-d]pyrimidin-5-yl)acetamide] | 99.9% | 100% | < 50 nM | 98.2% | 98.9% | 50 to 100 nM
Cn1c(=O)c2c(CC(=O)Nc3nc(-c4cccc(C(F)(F)F)c4F)cs3)coc2n(C)c1=O [Example 20, N1-{4-[2-Fluoro-3-(trifluoromethyl)phenyl]-1,3-thiazol-2-yl}-2-(1,3-dimethyl-2,4-dioxo-1,2,3,4-tetrahydrofuro[2,3-d]pyrimidin-5-yl)acetamide] | 98.5% | 97.5% | < 50 nM | 99.8% | 96.8% | < 50 nM
Cn1c(=O)c2c(CC(=O)Nc3nc(-c4cc(F)cc(C(F)(F)F)c4)cs3)coc2n(C)c1=O [Example 21, N1-{4-[3-Fluoro-5-(trifluoromethyl)phenyl]-1,3-thiazol-2-yl}-2-(1,3-dimethyl-2,4-dioxo-1,2,3,4-tetrahydrofuro[2,3-d]pyrimidin-5-yl)acetamide] | 99.8% | 99.8% | < 50 nM | 99.9% | 98.9% | < 50 nM
Cn1c(=O)c2c(CC(=O)Nc3nc(-c4ccc(C(F)(F)F)cc4F)cs3)coc2n(C)c1=O [Example 22, N1-{4-[2-Fluoro-4-(trifluoromethyl)phenyl]-1,3-thiazol-2-yl}-2-(1,3-dimethyl-2,4-dioxo-1,2,3,4-tetrahydrofuro[2,3-d]pyrimidin-5-yl)acetamide] | 99.3% | 98.5% | < 50 nM | 100% | 100% | 
Cn1c(=O)c2c(CC(=O)Nc3nc(-c4ccc(OC(F)F)c(F)c4)cs3)coc2n(C)c1=O [Example 23, N1-[4-(3-Fluoro-4-difluoromethoxyphenyl)-1,3-thiazol-2-yl]-2-(1,3-dimethyl-2,4-dioxo-1,2,3,4-tetrahydrofuro[2,3-d]pyrimidin-5-yl)acetamide] | 96.3% | 99% | < 50 nM | 95.5% | 92.6% | > 100 nM
Cn1c(=O)c2c(CC(=O)Nc3nc(-c4ccc(OC(F)F)c(Cl)c4)cs3)coc2n(C)c1=O [Example 24, N1-[4-(3-Chloro-4-difluoromethoxyphenyl)-1,3-thiazol-2-yl]-2-(1,3-dimethyl-2,4-dioxo-1,2,3,4-tetrahydrofuro[2,3-d]pyrimidin-5-yl)acetamide] | 97.4% | 99.8% | < 50 nM | 99.6% | 100% | > 100 nM
Cn1c(=O)c2c(CC(=O)Nc3nc(-c4ccc(OCC(C)(C)C)c(F)c4)cs3)coc2n(C)c1=O [Example 26, N1-{4-[4-(2,2-Dimethylpropoxy)-3-fluorophenyl]-1,3-thiazol-2-yl}-2-(1,3-dimethyl-2,4-dioxo-1,2,3,4-tetrahydrofuro[2,3-d]pyrimidin-5-yl)acetamide] | 97.6% | 99.3% | < 50 nM | 99.9% | 98.6% | 
Cn1c(=O)c2c(CC(=O)Nc3nc(-c4ccc(OCC(C)(C)C)c(Cl)c4)cs3)coc2n(C)c1=O [Example 27, N1-{4-[3-Chloro-4-(2,2-dimethylpropoxy)phenyl]-1,3-thiazol-2-yl}-2-(1,3-dimethyl-2,4-dioxo-1,2,3,4-tetrahydrofuro[2,3-d]pyrimidin-5-yl)acetamide] | 97.1% | 99.2% | > 100 nM | 100% | 93.1% | 
Cn1c(=O)c2c(CC(=O)Nc3nc(-c4ccc(OCC(C)(C)C)c(Br)c4)cs3)coc2n(C)c1=O [Example 28, N1-{4-[3-Bromo-4-(2,2-dimethylpropoxy)phenyl]-1,3-thiazol-2-yl}-2-(1,3-dimethyl-2,4-dioxo-1,2,3,4-tetrahydrofuro[2,3-d]pyrimidin-5-yl)acetamide] | 96.7% | 99.3% | > 100 nM | 100% | 98.5% | 
Cn1c(=O)c2c(CC(=O)Nc3nc(-c4ccc(OCC(F)(F)F)c(F)c4)cs3)coc2n(C)c1=O [Example 30, N1-{4-[3-Fluoro-4-(2,2,2-trifluoroethoxy)phenyl]-1,3-thiazol-2-yl}2-(1,3-dimethyl-2,4-dioxo-1,2,3,4-tetrahydrofuro[2,3-d]pyrimidin-5-yl)acetamide] | 97.4% | 100% | < 50 nM | 100% | 97.1% | > 100 nM
